Source: paper PMC10322702 (Nature Chemistry, 2023)
“And” between values parts separate entries of the source, which are not always exact repeats. Equal entries are not always repeated. “Also recorded” adds a separate entry of the source. Numbered stars: 1 amine (or outer) side, 2 acyl side, 3 side chain; on linkers, the order of the positions; unused ones are H or OH. Bridge positions count the residues as written; N and C are the ends. Square brackets hold non-standard residues; d marks the D form. Peptide text beside a SMILES is read from it. Acbc(cis-1,3) = O=C([C@H]1C[C@@H](N[*:1])C1)[*:2]; X1 = O=C([C@@H]1CC[C@H](N[*:1])C1)[*:2]

What was measured:
[1] = human serum (Cosmo Bio, 12181201); conditions: 37 °C, up to 100 h
SARS-CoV-2 M^pro [2] = biological target: T1, SARS-CoV-2 M^pro (Severe acute respiratory syndrome coronavirus 2, UniProt P0DTD1); assay: biochemical; assay type: biochemical
SARS-CoV-2 M^pro [3] = biological target: T1, SARS-CoV-2 M^pro; assay: biochemical; assay type: binding; conditions: for kon: read-out: ka (kinetic association)
[4] = Serum stability assay in human serum (LC/MS)
[5] = system: recombinant SARS-CoV-2 M^pro; assay: M^pro 6 mg ml^–1 in 20 mM HEPES (pH 7.5) and 50 mM NaCl, co-crystallization with GM4; conditions: SARS-CoV-2, room temperature, crystals grown at 20 °C, up to one week
[6] = 37 °C, incubation time 1 h, relative to 0 h = 100%, technical replicates, 60 min
[7] = 37 °C, incubation time 4 h, relative to 0 h = 100%, technical replicates, 240 min
[8] = 37 °C, incubation time 8 h, relative to 0 h = 100%, technical replicates, 480 min
[9] = human, Remaining peptide (%), 37 °C, incubation time 1 h, relative to 0 h = 100%, technical replicates
[10] = human, Remaining peptide (%), 37 °C, incubation time 4 h, relative to 0 h = 100%, technical replicates
[11] = human, Remaining peptide (%), 37 °C, incubation time 8 h, relative to 0 h = 100%, technical replicates
[12] = human, Remaining peptide (%), 37 °C, incubation time 24 h, relative to 0 h = 100%, technical replicates
[13] = 37 °C, incubation time 24 h, relative to 0 h = 100%, technical replicates, 1440 min
[14] = 37 °C, incubation time 50 h, relative to 0 h = 100%, technical replicates, 3000 min
[15] = 37 °C, incubation time 100 h, relative to 0 h = 100%, technical replicates, 6000 min
[16] = human, Remaining peptide (%), 37 °C, incubation time 50 h, relative to 0 h = 100%, technical replicates
[17] = human, Remaining peptide (%), 37 °C, incubation time 100 h, relative to 0 h = 100%, technical replicates

Question: With “^AcyFHA LNLGYRPGc-NH2 ({CH2CO}-[dY]FHALNLGYRPG[dC]-NH2; thioether N-13)” as the compound, how does the cleaved bond [1] read?
Answer: Its cleaved bond is “F2-H3, 24 h; also recorded: L5-N6, 24 h; also recorded: P11-G12, 24 h; also recorded: G12-c13, 24 h”.

Question: What does the source list for `CC(C)C[C@@H]1NC(=O)[C@@H](Cc2ccc(O)cc2)NC(=O)CSC[C@H](C(N)=O)NC(=O)[C@H](C)NC(=O)[C@H](C)NC(=O)[C@H](Cc2ccc(O)cc2)NC(=O)[C@H](CCCNC(=N)N)NC(=O)[C@H](Cc2ccc(O)cc2)NC(=O)[C@@H]2CC[C@@H](C2)NC(=O)[C@H](CO)NC(=O)[C@H](Cc2ccc(O)cc2)NC(=O)[C@H]([C@@H](C)O)NC(=O)[C@H](CO)NC(=O)[C@H](C)NC(=O)[C@H](Cc2ccc(O)cc2)NC(=O)[C@H](Cc2c[nH]cn2)NC1=O` [GM3] ({CH2CO}-[dY]LHYASTYS[X1]YRYAA[dC]-NH2; thioether N-16)?
Answer: IC50 (SARS-CoV-2 M^pro [2]): 2060 nM; inhibition at 2.75 µM (SARS-CoV-2 M^pro [2]): 66.3%; Kd (SARS-CoV-2 M^pro [3]): 62 nM; kd (kinetic dissociation) (SARS-CoV-2 M^pro [3]): 13 10^-3 s^-1; kon (SARS-CoV-2 M^pro [3]): 200000 M⁻¹ s⁻¹; Remaining peptide (%) ([4]; 37 °C, incubation time 0.5 h, relative to 0 h = 100%, technical replicates, 30 min): 72.71% and 73.43%; Remaining peptide (%) [4, 6]: 71.95% and 68.98%; Remaining peptide (%) ([4]; 37 °C, incubation time 2 h, relative to 0 h = 100%, technical replicates, 120 min): 55.38% and 55.49%; Remaining peptide (%) [4, 7]: 43.40% and 39.26%; Remaining peptide (%) [4, 8]: 15.43% and 15.99%; half-life at 10 μM ([4]; human): 2.5 h; remaining at 0.5 h, 10 μM ([4]; human, Remaining peptide (%), 37 °C, incubation time 0.5 h, relative to 0 h = 100%, technical replicates): 67.7%; remaining at 1 h, 10 μM [4, 9]: 60.8%; remaining at 2 h, 10 μM ([4]; human, Remaining peptide (%), 37 °C, incubation time 2 h, relative to 0 h = 100%, technical replicates): 48.5%; remaining at 4 h, 10 μM [4, 10]: 45.6%; remaining at 8 h, 10 μM [4, 11]: 15.7%; remaining at 24 h, 10 μM [4, 12]: 0%

Question: Which IC50 (SARS-CoV-2 M^pro [2]) does the source give for `CC(C)C[C@@H]1NC(=O)[C@H]([C@@H](C)O)NC(=O)[C@H](Cc2ccc(O)cc2)NC(=O)[C@H]([C@@H](C)O)NC(=O)[C@H](Cc2c[nH]cn2)NC(=O)[C@@H]2CCCN2C(=O)[C@@H]2CCCN2C(=O)[C@H](Cc2ccccc2)NC(=O)[C@H]2C[C@H](C2)NC(=O)[C@H](Cc2c[nH]cn2)NC(=O)[C@H](Cc2ccccc2)NC(=O)[C@@H](Cc2ccc(O)cc2)NC(=O)CSC[C@H](C(N)=O)NC1=O` [GM1] ({CH2CO}-[dY]FH[Acbc(cis-1,3)]FPPHTYTL[dC]-NH2; thioether N-13) here?
Answer: The IC50 was 40 nM.

Question: What about the inhibition at 0.000141 µM (SARS-CoV-2 M^pro [2]) of the same compound?
Answer: Its inhibition at 0.000141 µM is 4.71%.

Question: What about the inhibition at 0.0347 µM (SARS-CoV-2 M^pro [2]) of the same compound?
Answer: The inhibition at 0.0347 µM was 43.7%.

Question: What about the inhibition at 0.102 µM (SARS-CoV-2 M^pro [2]) of the same compound?
Answer: Its inhibition at 0.102 µM is 75.5%.

Question: What about the inhibition at 0.309 µM (SARS-CoV-2 M^pro [2]) of the same compound?
Answer: The inhibition at 0.309 µM was 93.7%.

Question: And the inhibition at 0.933 µM (SARS-CoV-2 M^pro [2])?
Answer: The inhibition at 0.933 µM was 100%.

Question: What about the inhibition at 2.75 µM (SARS-CoV-2 M^pro [2]) of the same compound?
Answer: The inhibition at 2.75 µM was 100%.

Question: And the inhibition at 8.32 µM (SARS-CoV-2 M^pro [2])?
Answer: The inhibition at 8.32 µM was 100%.

Question: And the Kd (SARS-CoV-2 M^pro [3])?
Answer: Its Kd is 2.3 nM.

Question: What about the “kd (kinetic dissociation)” value (SARS-CoV-2 M^pro [3]) of the same compound?
Answer: The value was 0.94 10^-3 s^-1.

Question: What about the kon (SARS-CoV-2 M^pro [3]) of the same compound?
Answer: Its kon is 410000 M⁻¹ s⁻¹.

Question: What about the “Remaining peptide (%)” value [4, 6] of the same compound?
Answer: Its value is 111.08% and 111.88%.

Question: What about the “Remaining peptide (%)” value [4, 7] of the same compound?
Answer: Its value is 108.25% and 114.45%.

Question: And the “Remaining peptide (%)” value [4, 8]?
Answer: Its value is 111.46% and 107.42%.

Question: And the “Remaining peptide (%)” value [4, 13]?
Answer: Its value is 74.66% and 74.47%.

Question: And the “Remaining peptide (%)” value [4, 14]?
Answer: Its value is 63.33% and 64.88%.

Question: And the “Remaining peptide (%)” value [4, 15]?
Answer: The value was 44.95% and 47.73%.

Question: And the half-life at 10 μM ([4]; human)?
Answer: Its half-life at 10 μM is 90 h.

Question: And the remaining at 1 h, 10 μM [4, 9]?
Answer: The remaining at 1 h, 10 μM was 111%.

Question: What about the remaining at 4 h, 10 μM [4, 10] of the same compound?
Answer: The remaining at 4 h, 10 μM was 115%.

Question: And the remaining at 8 h, 10 μM [4, 11]?
Answer: Its remaining at 8 h, 10 μM is 116%.

Question: And the remaining at 24 h, 10 μM [4, 12]?
Answer: Its remaining at 24 h, 10 μM is 77.3%.

Question: What about the remaining at 50 h, 10 μM [4, 16] of the same compound?
Answer: The remaining at 50 h, 10 μM was 67.1%.

Question: And the remaining at 100 h, 10 μM [4, 17]?
Answer: Its remaining at 100 h, 10 μM is 49%.

Question: What does the source list for “^AcyFHγ^1LNLGYRPGc-NH2 ({CH2CO}-[dY]FH[Acbc(cis-1,3)]LNLGYRPG[dC]-NH2; thioether N-13)”?
Answer: not cleaved [5]: complete intact peptide in the active site pocket; cleaved bond [1]: L5-N6, 24 h; also recorded: N6-L7, 24 h; also recorded: R10-P11, 24 h; also recorded: P11-G12, 24 h; also recorded: G12-c13, 24 h

Question: Which results are given for `CC[C@H](C)[C@@H]1NC(=O)[C@H](Cc2ccc(O)cc2)NC(=O)[C@H](CC(C)C)NC(=O)[C@H](CC(=O)O)NC(=O)[C@H](CCCNC(=N)N)NC(=O)[C@H](Cc2ccccc2)NC(=O)[C@@H]2CC[C@@H](C2)NC(=O)[C@H](Cc2c[nH]cn2)NC(=O)[C@H](Cc2ccccc2)NC(=O)[C@@H](Cc2ccc(O)cc2)NC(=O)CSC[C@H](C(N)=O)NC(=O)CNC(=O)[C@H](CC(C)C)NC1=O` [GM5] ({CH2CO}-[dY]FH[X1]FRDLYILG[dC]-NH2; thioether N-13)?
Answer: IC50 (SARS-CoV-2 M^pro [2]): 40 nM; inhibition at 1.86 µM (SARS-CoV-2 M^pro [2]): 100%; inhibition at 5.62 µM (SARS-CoV-2 M^pro [2]): 100%; inhibition at 16.6 µM (SARS-CoV-2 M^pro [2]): 100%; inhibition at 50.1 µM (SARS-CoV-2 M^pro [2]): 100%; inhibition at […] (SARS-CoV-2 M^pro [2]): 100%; Kd (SARS-CoV-2 M^pro [3]): 5.2 nM; kd (kinetic dissociation) (SARS-CoV-2 M^pro [3]): 1.2 10^-3 s^-1; kon (SARS-CoV-2 M^pro [3]): 240000 M⁻¹ s⁻¹; Remaining peptide (%) [4, 6]: 101.31% and 104.14%; Remaining peptide (%) [4, 7]: 77.04% and 80.18%; Remaining peptide (%) [4, 8]: 83.97% and 82.30%; Remaining peptide (%) [4, 13]: 66.27% and 59.32%; Remaining peptide (%) [4, 14]: 29.51% and 26.23%; Remaining peptide (%) [4, 15]: 20.75% and 19.44%; half-life at 10 μM ([4]; human): 32 h; remaining at 1 h, 10 μM [4, 9]: 101%; remaining at 4 h, 10 μM [4, 10]: 78.7%; remaining at 8 h, 10 μM [4, 11]: 83%; remaining at 24 h, 10 μM [4, 12]: 58.4%; remaining at 50 h, 10 μM [4, 16]: 30.7%; remaining at 100 h, 10 μM [4, 17]: 19.9%
